Reference: paper PMC8286840, “Identifying SARS-CoV-2 antiviral compounds by screening for small molecule inhibitors of Nsp3 papain-like protease” (Biochemical Journal, 2021)
Counter-ions that a name gives are not always drawn. Like-named read-outs stand apart in the source and are kept apart here. Where a SMILES comes first, the peptide text is derived from it. The star is where a group is joined. Cbz = O=C(OCc1ccccc1)*

Assays:
[1] = target: T1, SARS-CoV-2 PLpro (nsp3 1564–1878) (Severe acute respiratory syndrome coronavirus 2, UniProt P0DTD1); assay: biochemical; parameters: FRET-quenched peptide (Pro3) cleavage by PLpro, 10 min pre-incubation, slope over 20 min, normalised to no-compound control; details: low concentration screen, read-out: % of control remaining
[2] = target: T1, SARS-CoV-2 PLpro (nsp3 1564–1878); assay: biochemical; parameters: FRET-quenched peptide (Pro3) cleavage by PLpro, 10 min pre-incubation, slope over 20 min, normalised to no-compound control; details: high concentration screen, read-out: % of control remaining

CC(C)C[C@@H](C=O)NC(=O)[C@H](CC(C)C)NC(=O)[C@H](CC(C)C)NC(=O)OCc1ccccc1 [MG-132] (Cbz-Leu-Leu-Leu-aldehyde)
remaining activity at 1.25 µM ([1]; Well no.=8436): 96.8%
remaining activity at 3.75 µM ([2]; Well no.=8436): 97.5%

Cn1nc(C(F)(F)F)cc1-c1cnc(N2CCc3cc(S(=O)(=O)Nc4c(F)cc(Cl)cc4F)cc(N4CCCC4=O)c32)nc1 [MGAT2-IN-1]
remaining activity at 1.25 µM ([1]; Well no.=8422): 94.8%
remaining activity at 3.75 µM ([2]; Well no.=8422): 93.1%

COc1cc(C(O)CO)ccc1OS(=O)(=O)O (stereo not drawn) [MHPG sulfate potassium]
remaining activity at 1.25 µM ([1]; Well no.=710): 93%
remaining activity at 3.75 µM ([2]; Well no.=710): 90.8%

CC(C)(C)C[C@@H]1N[C@@H](C(=O)N[C@H]2CC[C@H](O)CC2)[C@H](c2cccc(Cl)c2F)[C@]12C(=O)Nc1cc(Cl)ccc12 [MI-773]
remaining activity at 1.25 µM ([1]; Well no.=6488): 96.1%
remaining activity at 1.25 µM ([1]; Well no.=8278): 102%
remaining activity at 3.75 µM ([2]; Well no.=6488): 93%
remaining activity at 3.75 µM ([2]; Well no.=8278): 97.3%

CN1CCN(c2ccc3nc(-c4cc(C(C)(C)C)c(OCCCC(=O)NCCCN=[N+]=[N-])c(C(C)(C)C)c4)[nH]c3c2)CC1 [MIR96-IN-1]
remaining activity at 1.25 µM ([1]; Well no.=7014): 94.6%
remaining activity at 3.75 µM ([2]; Well no.=7014): 81.9%

O=C(ON1C(=O)CCC1=O)N1CCN(C(c2ccc(Cl)cc2)c2ccc(Cl)cc2)CC1 [MJN110]
remaining activity at 1.25 µM ([1]; Well no.=5560): 97.4%
remaining activity at 3.75 µM ([2]; Well no.=5560): 100%

O=C(CCCc1ccc(-c2ccccc2F)cc1)Nc1ccc(O)cc1 [MK2a Inhibitor]
remaining activity at 1.25 µM ([1]; Well no.=2548): 94.2%
remaining activity at 3.75 µM ([2]; Well no.=2548): 102%

Cn1ncnc1COc1nn2c(-c3c(F)cccc3F)nnc2cc1C1CCC1 [MK-0343]
remaining activity at 1.25 µM ([1]; Well no.=5828): 101%
remaining activity at 3.75 µM ([2]; Well no.=5828): 102%

O=C1O[C@]2(CC[C@H](C(=O)Nc3ccn(-c4ccccc4F)n3)CC2)c2cnccc21 [MK-0557]
remaining activity at 1.25 µM ([1]; Well no.=6987): 104%
remaining activity at 3.75 µM ([2]; Well no.=6987): 104%

CN(C)C(=O)CCSC(SCCC(=O)O)c1cccc(/C=C/c2ccc3ccc(Cl)cc3n2)c1 (stereo not drawn) [MK-571 (sodium salt)]
remaining activity at 1.25 µM ([1]; Well no.=7859): 91.6%
remaining activity at 3.75 µM ([2]; Well no.=7859): 91.2%

O=C(O)CC[C@H]1CC[C@@](c2cc(F)ccc2F)(S(=O)(=O)c2ccc(Cl)cc2)CC1 [MK-0752]
remaining activity at 1.25 µM ([1]; Well no.=4639): 97.6%
remaining activity at 3.75 µM ([2]; Well no.=4639): 99.5%

CO[C@@H]1COCC[C@@H]1N[C@@H]1CC[C@@](C(=O)N2CCc3ncc(C(F)(F)F)cc3C2)(C(C)C)C1 [MK-0812 (Succinate)]
remaining activity at 1.25 µM ([1]; Well no.=8321): 97.5%
remaining activity at 3.75 µM ([2]; Well no.=8321): 97.9%

CC(C)c1ccc2c(c1)c(SC(C)(C)C)c(CC(C)(C)C(=O)O)n2Cc1ccc(Cl)cc1 [MK-886 (L-663,536)]
remaining activity at 1.25 µM ([1]; Well no.=8678): 96.7%
remaining activity at 3.75 µM ([2]; Well no.=8678): 94.2%

CC(C)c1ccc2c(c1)c(SC(C)(C)C)c(CC(C)(C)C(=O)O)n2Cc1ccc(Cl)cc1 [MK-886]
remaining activity at 1.25 µM ([1]; Well no.=1018): 105%
remaining activity at 3.75 µM ([2]; Well no.=1018): 104%

CN1CC[C@]2(CCN3CCc4c(oc5ccccc45)[C@@H]3C2)N(C)C1=O [MK-912]
remaining activity at 1.25 µM ([1]; Well no.=934): 101%
remaining activity at 3.75 µM ([2]; Well no.=934): 104%

O=C(N[C@@H]1CC[C@@H](c2cccc(F)c2F)CN(CC(F)(F)F)C1=O)N1CCC(n2c(=O)[nH]c3ncccc32)CC1 [MK-0974]
remaining activity at 1.25 µM ([1]; Well no.=7709): 102%
remaining activity at 3.75 µM ([2]; Well no.=7709): 108%

C=CCn1c(=O)c2cnc(Nc3ccc(N4CCN(C)CC4)cc3)nc2n1-c1cccc(C(C)(C)O)n1 [MK-1775]
remaining activity at 1.25 µM ([1]; Well no.=4947): 102%
remaining activity at 3.75 µM ([2]; Well no.=4947): 99.7%

CCN1C[C@H](C)n2c(c(O)c3c(=O)n(Cc4ccc(F)c(Cl)c4)nc(C(=O)NC)c32)C1=O [MK-2048]
remaining activity at 1.25 µM ([1]; Well no.=4731): 107%
remaining activity at 3.75 µM ([2]; Well no.=4731): 104%

NC1(c2ccc(-c3nc4ccn5c(=O)[nH]nc5c4cc3-c3ccccc3)cc2)CCC1 [MK-2206 2HCl]
remaining activity at 1.25 µM ([1]; Well no.=4625): 102%
remaining activity at 3.75 µM ([2]; Well no.=4625): 102%

CN(C[C@@H]1COCCO1)S(=O)(=O)Nc1ccc2ccc3ncc(-c4cnn(C)c4)cc3c(=O)c2c1 [MK-2461]
remaining activity at 1.25 µM ([1]; Well no.=4737): 105%
remaining activity at 3.75 µM ([2]; Well no.=4737): 105%

Cc1sc(C)c(C(=O)NC2(c3ccc(C(=O)O)cc3)CC2)c1Cc1ccc(C(F)(F)F)cc1 [MK-2894]
remaining activity at 1.25 µM ([1]; Well no.=7101): 94.3%
remaining activity at 3.75 µM ([2]; Well no.=7101): 90.7%

O=C(CN1C(=O)C2(CCCC2)NC[C@H]1c1cc(F)cc(F)c1)Nc1ccc2c(c1)C[C@@]1(C2)C(=O)Nc2ncccc21 [MK-3207 (Hydrochloride)]
remaining activity at 1.25 µM ([1]; Well no.=6950): 93.4%
remaining activity at 3.75 µM ([2]; Well no.=6950): 93.6%

COc1ccc(CNC(=O)c2cc(-c3cncc(C)c3)ncc2-c2nccs2)nc1OC [MK-3697]
remaining activity at 1.25 µM ([1]; Well no.=7867): 107%
remaining activity at 3.75 µM ([2]; Well no.=7867): 95.1%

O=C(O)[C@]1(Cc2cccc(Nc3nccs3)n2)CC[C@@H](Oc2cccc(Cl)c2F)CC1 [MK-5108 (VX-689)]
remaining activity at 1.25 µM ([1]; Well no.=4733): 101%
remaining activity at 3.75 µM ([2]; Well no.=4733): 97.2%

CC(C)(Cc1nc(-c2ccc(O)cn2)no1)C(=O)NC1=C(C(=O)O)CCCC1 [MK-6892]
remaining activity at 1.25 µM ([1]; Well no.=7953): 101%
remaining activity at 3.75 µM ([2]; Well no.=7953): 100%

O=C(O)Cn1nnc(-c2cc(N3CCC(Oc4cc(F)ccc4Br)CC3)no2)n1 [MK-8245]
remaining activity at 1.25 µM ([1]; Well no.=4842): 90.5%
remaining activity at 3.75 µM ([2]; Well no.=4842): 85.1%

O=C(N[C@H]1CN2CCC1CC2)c1c[nH]c2ccsc2c1=O [MKC-733]
remaining activity at 1.25 µM ([1]; Well no.=5899): 105%
remaining activity at 3.75 µM ([2]; Well no.=5899): 108%

Cc1ccc(S(=O)(=O)n2c(N)nc3ccccc32)cc1 [ML130]
remaining activity at 1.25 µM ([1]; Well no.=4829): 101%
remaining activity at 3.75 µM ([2]; Well no.=4829): 101%

COc1ccc(CNCc2cccc3ccccc23)cc1 [ML133 HCl]
remaining activity at 1.25 µM ([1]; Well no.=4793): 97.9%
remaining activity at 3.75 µM ([2]; Well no.=4793): 96.1%

Cc1cc(NC(=O)CS(=O)(=O)c2cn(Cc3cc(Br)ccc3F)c3ccccc23)no1 [ML169]
remaining activity at 1.25 µM ([1]; Well no.=5507): 99%
remaining activity at 3.75 µM ([2]; Well no.=5507): 97.5%

COC(=O)c1cnn(-c2ccc(F)cc2F)c1/C=N/NC(=S)NC(C)(C)C [ML194]
remaining activity at 1.25 µM ([1]; Well no.=5766): 99.4%
remaining activity at 3.75 µM ([2]; Well no.=5766): 95.8%

CCN1CCN(C(c2ccc(C(F)(F)F)cc2)c2ccc3cccnc3c2O)CC1 (stereo not drawn) [ML311]
remaining activity at 1.25 µM ([1]; Well no.=6532): 99.7%
remaining activity at 3.75 µM ([2]; Well no.=6532): 99.6%

COc1cc2nc(C3CC3)nc(N3CCN(c4ccccc4OC)CC3)c2cc1OC [ML314]
remaining activity at 1.25 µM ([1]; Well no.=7913): 97.1%
remaining activity at 3.75 µM ([2]; Well no.=7913): 98.2%

O=C(NCCCNC(=O)c1ccc[nH]c1=O)c1cc(-c2ccccc2)on1 [ML327]
remaining activity at 1.25 µM ([1]; Well no.=7164): 101%
remaining activity at 3.75 µM ([2]; Well no.=7164): 93.7%

NS(=O)(=O)c1ccc(NC2=CC(=O)c3ccccc3C2=O)cc1 [ML329]
remaining activity at 1.25 µM ([1]; Well no.=8264): 91.6%
remaining activity at 3.75 µM ([2]; Well no.=8264): 90.3%
